Columns and labels:
[1] = biological target: serine/threonine kinases (STK) in colon carcinoma PDX lysates; test: PamChip serine/threonine kinase (STK) activity profiling of colon carcinoma PDX tumor lysates; set-up: species or system human PDX grown in mice; Kinase score: scale not given here; details: for Kinase statistic: value<0 = higher activity in vehicle-treated tumors; for Kinase score: vehicle-treated vs KcAng(1-7)-treated tumors
Description: In particular, to determine the effect of treatment on kinase activities, Tyrosine (PTK) and Serine/Threonine (STK) PamChip®-based kinase activity profiling in lysates from colon carcinoma PDX was performed by PamGene International B.V., The Netherlands.
PamGene® kinase activity profiles were measured for vehicle-treated colon cancer PDX tumors (control, n=10) and KcAng(1-7)-treated colon cancer PDX tumors (treatment, n=10).
Frozen tissues of tumor samples were processed to make lysates followed by determination of tyrosine kinase and serine/threonine kinase activity profiles. Datasets were analyzed by PamGene bioinformatics toolbox, for example by using PamGene's method called Upstream Kinase Analysis.
Kinase Score was used for ranking kinases based on their significance and specificity in terms of the set of peptides used for the corresponding kinase. Kinase statistics indicates the overall change of the peptide set that represents the kinase. Kinase statistics value<0 indicates higher activity in vehicle-treated tumors.

[2] = tested on: U87MG glioblastoma CDX; test: Tumor hemoglobin level (indirect angiogenesis) in U87MG CDX; format: in vivo, cd1 nu/nu mice (human GBM cell line); details: KcAng(1-7) 1 μg/kg/d, Losartan 20 mg/kg/d, or both
Description: Efficacy of treatment was evaluated by: […] Mice with U87MG cell CDX were randomized at day 0. KcAng(1-7) was injected subcutaneously (1 μg/kg) on a daily basis. Losartan was administered intraperitoneal at 20 mg/kg/day. […] In brief, tumors were homogenized in double-distilled water. Eighty microliters of homogenates were mixed with 1 mL of Drabkin's solution and incubated for 15 min at room temperature. After centrifugation at 400×g for 5 min, the supernatants were subjected to absorbance measurement at 540 nm. The absorption, which is proportional to hemoglobin concentration, was divided by tumor weight.

**Q.** “Lys-Asp-Arg-Val-Abu/Ala-Ile-His-Abu/Ala (KDRVAIHA; not fully specified; cyclic thioether (Abu/Ala bridge); VARIANT (5)..(5) /replace=“Abu”; VARIANT (8)..(8) /replace=“Abu”; SITE (1)..(8) /note=“Variant residues given in the sequence have no preference with respect to those in the annotations for variant positions”) [KcAng(1-7)]” was tested. Which Kinase statistic ([1]; kinase CDC2/CDK1) did it give?
**A.** Its Kinase statistic is −0.80.

**Q.** And the Kinase score ([1]; kinase CDC2/CDK1)?
**A.** The Kinase score was 3.79.

**Q.** What about the Kinase statistic ([1]; kinase CDK2) of the same substance?
**A.** Its Kinase statistic is −0.88.

**Q.** What about the Kinase score ([1]; kinase CDK2) of the same substance?
**A.** The Kinase score was 5.40.

**Q.** And the Kinase statistic ([1]; kinase CDK4)?
**A.** Its Kinase statistic is −0.80.

**Q.** And the Kinase score ([1]; kinase CDK4)?
**A.** The Kinase score was 3.11.

**Q.** And the Kinase statistic ([1]; kinase CDK5)?
**A.** Its Kinase statistic is −0.80.

**Q.** What about the Kinase score ([1]; kinase CDK5) of the same substance?
**A.** Its Kinase score is 3.11.

**Q.** What about the Kinase statistic ([1]; kinase CDK6) of the same substance?
**A.** Its Kinase statistic is −0.80.

**Q.** And the Kinase score ([1]; kinase CDK6)?
**A.** The Kinase score was 3.10.

**Q.** And the Kinase statistic ([1]; kinase CDK9)?
**A.** The Kinase statistic was −0.83.

**Q.** And the Kinase score ([1]; kinase CDK9)?
**A.** Its Kinase score is 4.19.

**Q.** What about the Kinase statistic ([1]; kinase CDKL2) of the same substance?
**A.** Its Kinase statistic is −0.98.

**Q.** And the Kinase score ([1]; kinase CDKL2)?
**A.** Its Kinase score is 4.62.

**Q.** And the Kinase statistic ([1]; kinase CDKL5)?
**A.** Its Kinase statistic is −0.82.

**Q.** What about the Kinase score ([1]; kinase CDKL5) of the same substance?
**A.** The Kinase score was 4.21.

**Q.** What about the Kinase statistic ([1]; kinase ERK1) of the same substance?
**A.** Its Kinase statistic is −0.82.

**Q.** What about the Kinase score ([1]; kinase ERK1) of the same substance?
**A.** Its Kinase score is 4.44.

**Q.** What about the Kinase statistic ([1]; kinase ERK2) of the same substance?
**A.** Its Kinase statistic is −0.79.

**Q.** What about the Kinase score ([1]; kinase ERK2) of the same substance?
**A.** Its Kinase score is 3.84.

**Q.** What about the Kinase statistic ([1]; kinase ERK5) of the same substance?
**A.** The Kinase statistic was −0.90.

**Q.** And the Kinase score ([1]; kinase ERK5)?
**A.** The Kinase score was 5.40.

**Q.** And the Kinase statistic ([1]; kinase JNK1)?
**A.** The Kinase statistic was −0.77.

**Q.** What about the Kinase score ([1]; kinase JNK1) of the same substance?
**A.** Its Kinase score is 3.92.

**Q.** What about the Kinase statistic ([1]; kinase JNK2) of the same substance?
**A.** Its Kinase statistic is −0.77.

**Q.** What about the Kinase score ([1]; kinase JNK2) of the same substance?
**A.** The Kinase score was 3.67.

**Q.** What about the Kinase statistic ([1]; kinase JNK3) of the same substance?
**A.** Its Kinase statistic is −0.77.

**Q.** And the Kinase score ([1]; kinase JNK3)?
**A.** The Kinase score was 4.08.

**Q.** And the Kinase statistic ([1]; kinase MAPK14)?
**A.** The Kinase statistic was −0.79.

**Q.** And the Kinase score ([1]; kinase MAPK14)?
**A.** The Kinase score was 3.54.

**Q.** What about the Kinase statistic ([1]; kinase PCTAIRE2) of the same substance?
**A.** The Kinase statistic was −0.74.

**Q.** And the Kinase score ([1]; kinase PCTAIRE2)?
**A.** Its Kinase score is 3.44.

**Q.** And the Kinase statistic ([1]; kinase RAF1)?
**A.** Its Kinase statistic is −0.74.

**Q.** What about the Kinase score ([1]; kinase RAF1) of the same substance?
**A.** Its Kinase score is 2.97.

**Q.** And the Kinase statistic ([1]; kinase RSK3)?
**A.** Its Kinase statistic is −0.75.

**Q.** And the Kinase score ([1]; kinase RSK3)?
**A.** Its Kinase score is 3.42.

**Q.** And the Kinase statistic ([1]; kinase p38[beta])?
**A.** The Kinase statistic was −0.84.

**Q.** What about the Kinase score ([1]; kinase p38[beta]) of the same substance?
**A.** Its Kinase score is 4.14.

**Q.** What about the Kinase statistic ([1]; kinase p38[gamma]) of the same substance?
**A.** The Kinase statistic was −0.82.

**Q.** And the Kinase score ([1]; kinase p38[gamma])?
**A.** Its Kinase score is 3.47.

**Q.** What about the “Tumor hemoglobin level, mean (± SEM)” value [2] of the same substance?
**A.** The value was 8.8 ± 1.0 mg hemoglobin/g of tissue.
